Data from PubChem BioAssay (NCI).
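Following 48 hours of exposure in 96-well plates, responses at five concentrations were used to interpolate endpoints linearly. GI50 marks 50% less growth. At the TGI there is no net growth.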

Columns and labels:
Test in all cases: NCI anticancer screen, dose series, 48 h
A549 NSCLC = tested on: A549 NSCLC
SF-295 CNS = tested on: SF-295 CNS
RXF 393 renal = tested on: RXF 393 renal
UACC-62 melanoma = tested on: UACC-62 melanoma
786-0 renal = tested on: 786-0 renal
HCT-116 colon = tested on: HCT-116 colon
A498 renal = tested on: A498 renal
OVCAR-4 ovarian = tested on: OVCAR-4 ovarian
SK-MEL-2 melanoma = tested on: SK-MEL-2 melanoma
SN12C renal = tested on: SN12C renal
ACHN renal = tested on: ACHN renal
HCT-15 colon = tested on: HCT-15 colon
SNB-75 CNS = tested on: SNB-75 CNS
MDA-MB-231 breast = tested on: MDA-MB-231 breast
SR leukemia = tested on: SR leukemia
IGROV1 ovarian = tested on: IGROV1 ovarian
HCC-2998 colon = tested on: HCC-2998 colon
HS 578T breast = tested on: HS 578T breast
T-47D breast = tested on: T-47D breast
M14 melanoma = tested on: M14 melanoma
SW-620 colon = tested on: SW-620 colon
CCRF-CEM leukemia = tested on: CCRF-CEM leukemia
SNB-19 CNS = tested on: SNB-19 CNS
SK-MEL-5 melanoma = tested on: SK-MEL-5 melanoma
U251 CNS = tested on: U251 CNS
K-562 leukemia = tested on: K-562 leukemia
HOP-62 NSCLC = tested on: HOP-62 NSCLC
OVCAR-3 ovarian = tested on: OVCAR-3 ovarian
SK-MEL-28 melanoma = tested on: SK-MEL-28 melanoma
UO-31 renal = tested on: UO-31 renal
NCI-H23 lung = tested on: NCI-H23 lung
EKVX NSCLC = tested on: EKVX NSCLC
NCI-H226 lung = tested on: NCI-H226 lung
RPMI-8226 leukemia = tested on: RPMI-8226 leukemia
MCF7 breast = tested on: MCF7 breast
SF-268 CNS = tested on: SF-268 CNS
TK-10 renal = tested on: TK-10 renal
MALME-3M melanoma = tested on: MALME-3M melanoma
MDA-MB-435 = tested on: MDA-MB-435
PC-3 prostate = tested on: PC-3 prostate
NCI-H460 lung = tested on: NCI-H460 lung
NCI/ADR-RES ovarian = tested on: NCI/ADR-RES ovarian
LOX IMVI melanoma = tested on: LOX IMVI melanoma
UACC-257 melanoma = tested on: UACC-257 melanoma
NCI-H522 lung = tested on: NCI-H522 lung
KM12 colon = tested on: KM12 colon
OVCAR-5 ovarian = tested on: OVCAR-5 ovarian
SF-539 CNS = tested on: SF-539 CNS
CAKI-1 renal = tested on: CAKI-1 renal
HOP-92 NSCLC = tested on: HOP-92 NSCLC
MOLT-4 leukemia = tested on: MOLT-4 leukemia
HT29 colon = tested on: HT29 colon
BT-549 breast = tested on: BT-549 breast
OVCAR-8 ovarian = tested on: OVCAR-8 ovarian
SK-OV-3 ovarian = tested on: SK-OV-3 ovarian
COLO 205 colon = tested on: COLO 205 colon
DU-145 prostate = tested on: DU-145 prostate
HL-60(TB) leukemia = tested on: HL-60(TB) leukemia

COC(=O)C(C(=O)C(=O)Nc1c(C)cccc1C(C)(C)C)c1nc2ccc(Cl)cc2[nH]c1=O (centres undefined)
TGI (A549 NSCLC): > 100 µM | TGI (SF-295 CNS): > 100 µM | TGI (RXF 393 renal): > 100 µM | TGI (UACC-62 melanoma): > 100 µM | TGI (786-0 renal): > 100 µM | TGI (HCT-116 colon): > 100 µM | TGI (A498 renal): > 100 µM | TGI (OVCAR-4 ovarian): > 100 µM | TGI (SK-MEL-2 melanoma): > 100 µM | TGI (SN12C renal): > 100 µM | TGI (ACHN renal): > 100 µM | TGI (HCT-15 colon): > 100 µM | TGI (SNB-75 CNS): > 100 µM | TGI (MDA-MB-231 breast): > 100 µM | TGI (SR leukemia): > 100 µM | TGI (IGROV1 ovarian): > 100 µM | TGI (HCC-2998 colon): > 100 µM | TGI (HS 578T breast): > 100 µM | TGI (T-47D breast): > 100 µM | TGI (M14 melanoma): > 100 µM | TGI (SW-620 colon): > 100 µM | TGI (CCRF-CEM leukemia): > 100 µM | TGI (SNB-19 CNS): > 100 µM | TGI (SK-MEL-5 melanoma): > 100 µM | TGI (U251 CNS): > 100 µM | TGI (K-562 leukemia): > 100 µM | TGI (HOP-62 NSCLC): > 100 µM | TGI (OVCAR-3 ovarian): > 100 µM | TGI (SK-MEL-28 melanoma): > 100 µM | TGI (UO-31 renal): > 100 µM | TGI (NCI-H23 lung): > 100 µM | TGI (EKVX NSCLC): > 100 µM | TGI (NCI-H226 lung): > 100 µM | TGI (RPMI-8226 leukemia): > 100 µM | TGI (MCF7 breast): > 100 µM | TGI (SF-268 CNS): > 100 µM | TGI (TK-10 renal): > 100 µM | TGI (MALME-3M melanoma): > 100 µM | TGI (MDA-MB-435): > 100 µM | TGI (PC-3 prostate): > 100 µM | TGI (NCI-H460 lung): > 100 µM | TGI (NCI/ADR-RES ovarian): > 100 µM | TGI (LOX IMVI melanoma): > 100 µM | TGI (UACC-257 melanoma): > 100 µM | TGI (NCI-H522 lung): > 100 µM | TGI (KM12 colon): > 100 µM | TGI (OVCAR-5 ovarian): > 100 µM | TGI (SF-539 CNS): > 100 µM | TGI (CAKI-1 renal): > 100 µM | TGI (HOP-92 NSCLC): > 100 µM | TGI (MOLT-4 leukemia): > 100 µM | TGI (HT29 colon): > 100 µM | TGI (BT-549 breast): > 100 µM | TGI (OVCAR-8 ovarian): > 100 µM | TGI (SK-OV-3 ovarian): > 100 µM

COc1cc(N2C(=O)[C@H](Cl)C2c2ccc(SC)cc2)cc(OC)c1OC (some centres undefined)
GI50 (A549 NSCLC): 0.463 µM | TGI (A549 NSCLC): > 100 µM | GI50 (SF-295 CNS): 0.0394 µM | TGI (SF-295 CNS): > 100 µM | GI50 (RXF 393 renal): 0.0385 µM | TGI (RXF 393 renal): > 100 µM | GI50 (UACC-62 melanoma): 0.0712 µM | TGI (UACC-62 melanoma): 91.5 µM | GI50 (COLO 205 colon): 0.0677 µM | TGI (COLO 205 colon): 11.4 µM | GI50 (786-0 renal): 0.0456 µM | TGI (786-0 renal): 1.83 µM | GI50 (HCT-116 colon): 0.035 µM | TGI (HCT-116 colon): 1 µM | GI50 (OVCAR-4 ovarian): 0.0647 µM | TGI (OVCAR-4 ovarian): > 100 µM | GI50 (SK-MEL-2 melanoma): 0.3 µM | TGI (SK-MEL-2 melanoma): > 100 µM | GI50 (SN12C renal): 0.348 µM | TGI (SN12C renal): > 100 µM | GI50 (ACHN renal): 0.061 µM | TGI (ACHN renal): 71.3 µM | GI50 (HCT-15 colon): 0.047 µM | TGI (HCT-15 colon): > 100 µM | GI50 (SNB-75 CNS): 0.0236 µM | TGI (SNB-75 CNS): > 100 µM | GI50 (MDA-MB-231 breast): 0.238 µM | TGI (MDA-MB-231 breast): > 100 µM | GI50 (SR leukemia): 0.0473 µM | TGI (SR leukemia): > 100 µM | GI50 (IGROV1 ovarian): 0.0672 µM | TGI (IGROV1 ovarian): > 100 µM | GI50 (HCC-2998 colon): 0.235 µM | TGI (HCC-2998 colon): > 100 µM | GI50 (HS 578T breast): 0.101 µM | TGI (HS 578T breast): > 100 µM | GI50 (T-47D breast): 41.3 µM | TGI (T-47D breast): > 100 µM | GI50 (SW-620 colon): 0.0453 µM | TGI (SW-620 colon): > 100 µM | GI50 (CCRF-CEM leukemia): 0.305 µM | TGI (CCRF-CEM leukemia): > 100 µM | GI50 (SNB-19 CNS): 0.0965 µM | TGI (SNB-19 CNS): > 100 µM | GI50 (SK-MEL-5 melanoma): 0.0522 µM | TGI (SK-MEL-5 melanoma): 0.468 µM | GI50 (U251 CNS): 0.124 µM | TGI (U251 CNS): > 100 µM | GI50 (K-562 leukemia): 0.0366 µM | TGI (K-562 leukemia): > 100 µM | GI50 (HOP-62 NSCLC): 0.263 µM | TGI (HOP-62 NSCLC): > 100 µM | GI50 (OVCAR-3 ovarian): 0.0294 µM | TGI (OVCAR-3 ovarian): 0.089 µM | GI50 (DU-145 prostate): 0.168 µM | TGI (DU-145 prostate): > 100 µM | GI50 (NCI-H23 lung): 0.121 µM | TGI (NCI-H23 lung): > 100 µM | GI50 (EKVX NSCLC): 0.209 µM | TGI (EKVX NSCLC): > 100 µM | GI50 (NCI-H226 lung): 0.37 µM | TGI (NCI-H226 lung): > 100 µM | GI50 (RPMI-8226 leukemia): 0.348 µM | TGI (RPMI-8226 leukemia): 10.5 µM | GI50 (MCF7 breast): 0.0356 µM | TGI (MCF7 breast): > 100 µM | GI50 (SF-268 CNS): 0.0841 µM | TGI (SF-268 CNS): > 100 µM | GI50 (TK-10 renal): 1.94 µM | TGI (TK-10 renal): > 100 µM | GI50 (HL-60(TB) leukemia): 0.142 µM | TGI (HL-60(TB) leukemia): 0.703 µM | GI50 (PC-3 prostate): 0.0952 µM | TGI (PC-3 prostate): > 100 µM | GI50 (NCI-H460 lung): 0.362 µM | TGI (NCI-H460 lung): 11.6 µM | GI50 (NCI/ADR-RES ovarian): 0.0356 µM | TGI (NCI/ADR-RES ovarian): > 100 µM | GI50 (LOX IMVI melanoma): 0.0635 µM | TGI (LOX IMVI melanoma): > 100 µM | GI50 (UACC-257 melanoma): 32.2 µM | TGI (UACC-257 melanoma): > 100 µM | GI50 (NCI-H522 lung): 0.0299 µM | TGI (NCI-H522 lung): 0.263 µM | GI50 (KM12 colon): 0.0473 µM | TGI (KM12 colon): 20.3 µM | GI50 (OVCAR-5 ovarian): 0.411 µM | TGI (OVCAR-5 ovarian): > 100 µM | GI50 (SF-539 CNS): 0.0307 µM | TGI (SF-539 CNS): 0.163 µM | GI50 (CAKI-1 renal): 0.0484 µM | TGI (CAKI-1 renal): > 100 µM | GI50 (HOP-92 NSCLC): 0.214 µM | TGI (HOP-92 NSCLC): > 100 µM | GI50 (MOLT-4 leukemia): 0.284 µM | TGI (MOLT-4 leukemia): > 100 µM | GI50 (HT29 colon): 0.0438 µM | TGI (HT29 colon): > 100 µM | GI50 (BT-549 breast): 0.0989 µM | TGI (BT-549 breast): 0.748 µM | GI50 (OVCAR-8 ovarian): 0.226 µM | TGI (OVCAR-8 ovarian): > 100 µM | GI50 (SK-OV-3 ovarian): 0.588 µM | TGI (SK-OV-3 ovarian): > 100 µM
